What all share (type): cell-based
The test system of one series is HT29. Put plainly: XTT cell viability test on colon cancer cell line HT29. Particulars: 72 hours incubation. The source says: Three further JW-substances (JW-7, JW-8, JW-9) having the general structure according to formula 1b above with acyloxybenzyl-groups of different lengths (from 4 to 17 carbon atoms), but being asymmetrically substituted (i.e. having different groups R^A1 and R^B1), in four different concentrations (1.11, 3.33, 10 and 30 µmol/l) were investigated. As a comparison, 5-FU was used in the same concentrations. The investigated cell lines were the colon cancer cell lines CaCo2 and HT29.
(§1) The experiments consisted of three steps. On the first day, the cells were planted on 96-well-plates and left for growing and adhering for 24 hours. On the second day, the substances were applied in the known concentrations, diluted in the cell-line specific medium. After an incubation period of 72 hours, XTT-colouring (see, e.g., Roehm NW, Rodgers GH, Hatfield SM, Glasebrook AL, 1991, An improved colorimetric assay for cell proliferation and viability utilizing the tetrazolium salt XTT, J Immunol Methods, 142(2):257-65. doi: 10.1016/0022-1759(91)90114-u) was applied and the absorbance was measured after 6 hours. Table 2. Residues RA1 and RB1 of three further 5-Fluorouracil nucleoside triphosphate prodrugs according to the invention, being asymmetrically substituted with residues RA1 and RB1.

A further series relates to MDA-MB231. Put plainly: XTT cytotoxicity test on triple-negative breast carcinoma cell line. Particulars: 25, 12.5 and 6.25 µmol/l, compared with 5-FU, 72 hours incubation. The source says: In a first approach, six different JW-substances (JW-1, JW-2, JW-3, JW-4, JW-5, JW-6) having the general structure according to formula 1b above with acyloxybenzyl-groups of different lengths (from 8 to 13 carbon atoms) in three different concentrations (25, 12.5 and 6.25 µmol/l) were investigated. As a comparison, 5-FU was used in the same concentrations. The investigated cell line was a triple-negative breast carcinoma (MDA-MB231), see Fig. 2. The treatment of Triple Negative Breast Cancer is not well standardised, however, one of the treatment options includes 5-FU (Yin L, Duan JJ, Bian XW, Yu SC. Triple-negative breast cancer molecular subtyping and treatment progress. Breast Cancer Res. 2020 Jun 9;22(1):61. doi: 10.1186/s13058-020-01296-5. PMID: 32517735; PMCID: PMC7285581). […] Table 1. Residues RA1 and RB1 of six different symmetrically masked 5-Fluorouracil nucleoside triphosphate prodrugs according to the invention.
The experiments consisted of three steps. […] After an incubation period of 72 hours, XTT-colouring (see, e.g., Roehm NW, Rodgers GH, Hatfield SM, Glasebrook AL, 1991, An improved colorimetric assay for cell proliferation and viability utilizing the tetrazolium salt XTT, J Immunol Methods, 142(2):257-65. doi: 10.1016/0022-1759(91)90114-u) was applied and the absorbance was measured after 6 hours. […]

The next series has as its system SW620. Put plainly: XTT cytotoxicity test on colon carcinoma cell line, wider concentration range. Particulars: 30 µmol in triple dilution up to 0.014 µmol. How it is done:
Further investigations were performed in relation these two substances (JW-1 and JW-4). The same procedure as in the first experiments was used, but with a wider concentration range in order to examine the onset of cytotoxicity and the therapeutic range more closely. Thus, JW-1, JW-4 and 5-FU were applied to the cells (colon carcinoma cell line SW620) in the concentrations of 30 µmol in triple dilution up to 0.014 µmol and then examined according to the same scheme. […] A major advantage is, however, their increased therapeutic range. The cytotoxicity threshold is much lower than that of 5-FU. In the case of 5-FU, first cytotoxic effects can be detected between 1 and 3 µmol. In comparison, the threshold for JW-1 and JW-4 is below 1 µmol.
as §1

In turn, `O=c1[nH]cc(F)c(=O)[nH]1` [Compound 5-FU, 5-fluorouracil] yielded an IC50 with HT29 (Homo sapiens, HT-29, 1.11, 3.33, 10 and 30 µmol/l) of about 15 µM.

In the series with HT29 (1.11, 3.33, 10 and 30 µmol/l), C4/C17-TriPPPro [JW-07] had an IC50 of 4 to 5 µM.

In turn, C7/C9-TriPPPro [JW-08] displayed an IC50 with HT29 (1.11, 3.33, 10 and 30 µmol/l) of 2 µM.

Consider C8-TriPPPro [JW-1], for which, in the series on MDA-MB231, the cytotoxic effects entry was “significantly stronger cytotoxicity”. Besides, in the series with SW620, the “IC-50 values compared with 5-FU” value is given as “at least as low as 5-FU” and the “cytotoxicity threshold (first cytotoxic effects)” value is listed as “below 1 µmol”.

C10/C12-TriPPPro [JW-09] yielded an IC50 in the series on HT29 (1.11, 3.33, 10 and 30 µmol/l) of 1 to 2 µM.

With C11-TriPPPro [JW-4], the cytotoxic effects entry in the series on MDA-MB231 is given as “significantly stronger cytotoxicity”. Further, in the series on SW620, the “IC-50 values compared with 5-FU” value is on record as “at least as low as 5-FU” and the “cytotoxicity threshold (first cytotoxic effects)” value is recorded as “below 1 µmol”.
